Measurements from patent US10131663B2, “Chemical compounds” (AstraZeneca AB, priority 2016, dated 2018).

Experiments:
[1] = molecular target: T1, Estrogen Receptor (ERα) in MCF-7 cells (Homo sapiens (Human), UniProt P03372); assay: Western blotting assay, ER down-regulation in MCF-7; format: cell-based; details: 100 nM compound, 48 h, normalised to 100 nM fulvestrant
Protocol: Cells were incubated with compounds (100 nM) or vehicle control (0.1% DMSO) for 48 h at 37° C., 5% CO2 before washing once with PBS and lysing with 80 μl lysis buffer (25 mM Tris/HCl, 3 mM EDTA, 3 mM EGTA, 50 mM NaF, 2 mM sodium orthovanadate, 0.27 M sucrose, 10 mM β-glycerophosphate, 5 mM sodium pyrophosphate, 0.5% TritonX-100, pH 6.8) on ice.
Samples were boiled for 10 min at 95° C. and then frozen at −20° C. until ready for use.
The blot was stained with Ponceau S (P7170, Sigma) and cut according to appropriate molecular weight markers.
Membranes were blocked for 1 hour at room temp in 5% Marvel (w/v) in phosphate-buffered saline containing 0.05% Tween™ 20 (PBS/Tween). Blots were then incubated with anti-ERα (SP1) rabbit monoclonal antibody (Thermofisher) diluted 1:1000 at 4° C. overnight (with gentle shaking) followed by several washes with PBS/Tween. […] All antibodies were made up in 5% Marvel (w/v) in PBS/Tween.
Down-regulation of the ERα receptor was normalised to the vehicle control (0% down-regulation) and the 100 nM fulvestrant control (100% down-regulation) run within the same gel.

[2] = Human Caco-2 bidirectional permeability A to B and B to A; format: in vitro ADME; details: for Papp at 2 h: Caco-2, 2 hours, pH 7.4; for efflux ratio at 2 h: Caco-2, pH 7.4
Protocol: An automated assay was used to determine the bidirectional permeability (efflux and uptake) of compounds in Caco-2 cells carried out over 2 hours at pH 7.4.
The efflux ratio (ER) can be determined using the following equation: ER=Papp(B-A)/Papp(A-B) Where Papp (B-A) indicates the apparent permeability coefficient in basolateral to apical direction, and Papp (A-B) indicates the apparent permeability coefficient in apical to basolateral direction. Human Caco-2 Passive Permeability A to B Papp

[3] = Human plasma protein binding (equilibrium dialysis); format: in vitro ADME; details: dialysis 18 hours
Procedure, shortened: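 Fraction unbound (fu %) in human plasma, from LC/MSMS of plasma and buffer sides (7-point plasma calibration) after 18 h rapid equilibrium dialysis. Single determinations, with compounds pooled up to 10 per plasma pool.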

[4] = molecular target: T1, Estrogen Receptor (ERα) in MCF-7 cells; assay: MCF-7 ER down-regulation assay (immuno-fluorescence); format: cell-based
Procedure, shortened: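 Compounds dispensed acoustically from DMSO stocks onto MCF-7 cells; cells fixed 20 min at room temperature, then automated immunostaining for ERα with overnight incubation at 4° C. Read-out is mean total ER fluorescence intensity normalized to cell number (intensity per cell), with curve fitting for concentration-response values.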

[5] = log D (shake flask, 1-octanol/aqueous buffer); format: physicochemical
Procedure, shortened: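 Distribution between 1-octanol and aqueous buffer at pH 7.4 was measured by shake flask, with compounds run in mixtures of ten. Relative concentrations in each phase were quantified by UPLC with quantitative MS. Caffeine served as a low-log D QC sample in all runs.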

hERG potassium channel = hERG potassium channel (Homo sapiens (Human), UniProt Q12809); assay: hERG binding assay (automated patch clamp, CHO cells); format: cell-based; details: CHO cell line, Nanion Syncropatch 384PE
Chain of hERG potassium channel (Q12809 whole entry): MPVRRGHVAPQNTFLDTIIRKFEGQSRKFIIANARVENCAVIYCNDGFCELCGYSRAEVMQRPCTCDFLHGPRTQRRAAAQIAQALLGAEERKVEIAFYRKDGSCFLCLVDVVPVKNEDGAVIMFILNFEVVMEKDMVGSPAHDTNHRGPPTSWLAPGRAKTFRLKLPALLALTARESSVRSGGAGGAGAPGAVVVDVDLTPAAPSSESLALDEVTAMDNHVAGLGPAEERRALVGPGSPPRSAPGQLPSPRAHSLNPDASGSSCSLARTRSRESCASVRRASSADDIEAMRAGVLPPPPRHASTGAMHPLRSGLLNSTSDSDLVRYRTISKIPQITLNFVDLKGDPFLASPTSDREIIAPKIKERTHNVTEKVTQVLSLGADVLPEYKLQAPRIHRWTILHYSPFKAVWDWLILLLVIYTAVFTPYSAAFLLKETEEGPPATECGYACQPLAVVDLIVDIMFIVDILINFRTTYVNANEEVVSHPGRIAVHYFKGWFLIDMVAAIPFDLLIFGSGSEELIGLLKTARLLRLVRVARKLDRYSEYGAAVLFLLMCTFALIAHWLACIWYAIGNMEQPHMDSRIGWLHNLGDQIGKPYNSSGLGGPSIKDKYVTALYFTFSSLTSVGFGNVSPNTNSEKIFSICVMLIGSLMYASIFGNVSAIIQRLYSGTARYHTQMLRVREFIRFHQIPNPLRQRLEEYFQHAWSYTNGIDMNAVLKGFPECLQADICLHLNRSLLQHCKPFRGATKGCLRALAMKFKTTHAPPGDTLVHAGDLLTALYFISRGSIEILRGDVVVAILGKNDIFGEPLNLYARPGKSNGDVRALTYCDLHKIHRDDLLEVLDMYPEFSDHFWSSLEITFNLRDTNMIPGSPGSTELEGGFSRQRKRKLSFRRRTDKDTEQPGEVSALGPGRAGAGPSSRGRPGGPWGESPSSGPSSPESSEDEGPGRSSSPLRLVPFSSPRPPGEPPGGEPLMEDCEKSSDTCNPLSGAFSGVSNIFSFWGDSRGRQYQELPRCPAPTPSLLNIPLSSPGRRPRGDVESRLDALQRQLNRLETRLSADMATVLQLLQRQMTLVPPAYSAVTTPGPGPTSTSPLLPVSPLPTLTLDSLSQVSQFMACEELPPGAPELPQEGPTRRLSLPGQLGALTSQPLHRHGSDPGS
Procedure, shortened: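 CHO cells on automated patch clamp; compounds tested in quadruplicate. Currents evoked every 15 s from −80 mV holding by a 500 ms step to 60 mV then 500 ms to −40 mV.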

[6] = 1-octanol/aqueous buffer, pH 7.4, pH 7.4, 1-octanol/aqueous buffer
[7] = pH 7.4, 1-octanol/aqueous buffer

T1 sequence (P03372 whole entry): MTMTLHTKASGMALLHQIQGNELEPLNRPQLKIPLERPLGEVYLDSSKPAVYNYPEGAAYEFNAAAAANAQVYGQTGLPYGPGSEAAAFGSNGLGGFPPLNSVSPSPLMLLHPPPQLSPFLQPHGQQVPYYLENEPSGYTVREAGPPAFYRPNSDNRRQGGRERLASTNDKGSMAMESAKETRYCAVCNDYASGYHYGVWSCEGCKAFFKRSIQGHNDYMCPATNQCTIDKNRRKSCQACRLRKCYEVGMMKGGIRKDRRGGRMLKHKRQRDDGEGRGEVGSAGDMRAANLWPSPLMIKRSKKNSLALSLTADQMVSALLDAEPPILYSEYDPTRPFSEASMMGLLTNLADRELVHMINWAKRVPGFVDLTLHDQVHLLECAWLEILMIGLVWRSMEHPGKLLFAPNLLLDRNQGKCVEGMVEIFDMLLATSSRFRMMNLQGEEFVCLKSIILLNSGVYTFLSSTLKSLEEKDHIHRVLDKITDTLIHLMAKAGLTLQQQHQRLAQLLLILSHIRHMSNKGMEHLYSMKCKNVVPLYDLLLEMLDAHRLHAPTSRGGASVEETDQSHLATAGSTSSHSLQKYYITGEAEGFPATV

COc1cc(NC2CN(CCCF)C2)ccc1[C@@H]1c2ccc3[nH]ncc3c2C[C@@H](C)N1CC(F)F [Example 21, N-(4-((6S,8R)-7-(2,2-difluoroethyl)-8-methyl-6,7,8,9-tetrahydro-3H-pyrazolo[4,3-f]isoquinolin-6-yl)-3-methoxyphenyl)-1-(3-fluoropropyl)azetidin-3-amine]
MCF7 Western % ER deg vs Fv [1]: 99%
Papp at 2 h [2]: 4 ×10⁻⁶ cm/s
efflux ratio at 2 h [2]: 1.6
Human plasma protein binding (% free) [3]: 12 % free
IC50 [4]: 0.098 nM
logD [5, 6]: 3.1
IC50 (hERG potassium channel): 5300 nM

COc1cc(NC2CN(CCCF)C2)ccc1[C@@H]1c2ccc3[nH]ncc3c2C[C@@H](C)N1CC(F)(F)F [Example 28, 1-(3-fluoropropyl)-N-(3-methoxy-4-((6S,8R)-8-methyl-7-(2,2,2-trifluoroethyl)-6,7,8,9-tetrahydro-3H-pyrazolo[4,3-f]isoquinolin-6-yl)phenyl)azetidin-3-amine]
MCF7 Western % ER deg vs Fv [1]: 95%
Papp at 2 h [2]: 1.2 ×10⁻⁶ cm/s
efflux ratio at 2 h [2]: 3.8
Human plasma protein binding (% free) [3]: 6 % free
IC50 [4]: 0.065 nM
logD [5, 7]: 3.6
IC50 (hERG potassium channel): 7800 nM

C[C@@H]1Cc2c(ccc3[nH]ncc23)[C@@H](c2ccc(NC3CN(CCCF)C3)cn2)N1CC1(F)CC1 [Example 3, 6-((6S,8R)-7-((1-fluorocyclopropyl)methyl)-8-methyl-6,7,8,9-tetrahydro-3H-pyrazolo[4,3-f]isoquinolin-6-yl)-N-(1-(3-fluoropropyl)azetidin-3-yl)pyridin-3-amine]
MCF7 Western % ER deg vs Fv [1]: 90%
Papp at 2 h [2]: 2.3 ×10⁻⁶ cm/s
efflux ratio at 2 h [2]: 9.2
Human plasma protein binding (% free) [3]: 26 % free
IC50 [4]: 0.64 nM
logD [5, 7]: 2.5
IC50 (hERG potassium channel): > 36000 nM

C[C@@H]1Cc2c(ccc3[nH]nc(F)c23)[C@@H](c2ncc(NC3CN(CCCF)C3)cc2F)N1CC(F)(F)F [Example 33, 5-Fluoro-6-((6S,8R)-1-fluoro-8-methyl-7-(2,2,2-trifluoroethyl)-6,7,8,9-tetrahydro-3H-pyrazolo[4,3-f]isoquinolin-6-yl)-N-(1-(3-fluoropropyl)azetidin-3-yl)pyridin-3-amine]
MCF7 Western % ER deg vs Fv [1]: 98%
Papp at 2 h [2]: 2.6 ×10⁻⁶ cm/s
efflux ratio at 2 h [2]: 1.5
Human plasma protein binding (% free) [3]: 5.4 % free
IC50 [4]: 0.1 nM
logD [5, 7]: 3.6
IC50 (hERG potassium channel): 14000 nM

C[C@@H]1Cc2c(ccc3[nH]ncc23)[C@@H](c2ccc(NC3CN(CCCF)C3)cc2)N1CC(F)F [Example 48, N-(4-((6R,8R)-7-(2,2-difluoroethyl)-8-methyl-6,7,8,9-tetrahydro-3H-pyrazolo[4,3-f]isoquinolin-6-yl)phenyl)-1-(3-fluoropropyl)azetidin-3-amine]
MCF7 Western % ER deg vs Fv [1]: 93%
Human plasma protein binding (% free) [3]: 10 % free
IC50 [4]: 0.078 nM
logD [5, 6]: 3.1

C[C@@H]1Cc2c(ccc3[nH]ncc23)[C@@H](c2ncc(NC3CN(CCCF)C3)cc2F)N1CC(F)(F)F [Example 30, 5-fluoro-N-(1-(3-fluoropropyl)azetidin-3-yl)-6-((6S,8R)-8-methyl-7-(2,2,2-trifluoroethyl)-6,7,8,9-tetrahydro-3H-pyrazolo[4,3-f]isoquinolin-6-yl)pyridin-3-amine]
MCF7 Western % ER deg vs Fv [1]: 96%
Papp at 2 h [2]: 2.7 ×10⁻⁶ cm/s
efflux ratio at 2 h [2]: 7.8
Human plasma protein binding (% free) [3]: 16 % free
IC50 [4]: 0.28 nM
logD [5, 7]: 3
IC50 (hERG potassium channel): > 33000 nM

C[C@@H]1Cc2c(ccc3[nH]ncc23)[C@@H](c2ncc(NC3CN(CCCF)C3)cc2F)N1CC1(F)CC1 [Example 18, 5-fluoro-6-((6S,8R)-7-((1-fluorocyclopropyl)methyl)-8-methyl-6,7,8,9-tetrahydro-3H-pyrazolo[4,3-f]isoquinolin-6-yl)-N-(1-(3-fluoropropyl)azetidin-3-yl)pyridin-3-amine]
MCF7 Western % ER deg vs Fv [1]: 103%
Human plasma protein binding (% free) [3]: 34 % free
IC50 [4]: 0.42 nM
logD [5, 6]: 2.6
IC50 (hERG potassium channel): > 38000 nM

C[C@@H]1Cc2c(ccc3[nH]ncc23)[C@@H](c2ccc(NC3CN(CCCF)C3)cn2)N1CC(F)(F)CO [Example 16, 2,2-difluoro-3-((6S,8R)-6-(5-((1-(3-fluoropropyl)azetidin-3-yl)amino)pyridin-2-yl)-8-methyl-3,6,8,9-tetrahydro-7H-pyrazolo[4,3-f]isoquinolin-7-yl)propan-1-ol]
MCF7 Western % ER deg vs Fv [1]: 104%
Papp at 2 h [2]: 1.6 ×10⁻⁶ cm/s
efflux ratio at 2 h [2]: 9.7
Human plasma protein binding (% free) [3]: 64 % free
IC50 [4]: 0.54 nM
logD [5, 7]: 2
IC50 (hERG potassium channel): > 40000 nM

C[C@@H]1Cc2c(ccc3[nH]ncc23)[C@@H](c2ccc(NC3CN(CCCF)C3)cc2)N1CC(F)(F)F [Example 27, 1-(3-Fluoropropyl)-N-(4-((6R,8R)-8-methyl-7-(2,2,2-trifluoroethyl)-6,7,8,9-tetrahydro-3H-pyrazolo[4,3-f]isoquinolin-6-yl)phenyl)azetidin-3-amine]
MCF7 Western % ER deg vs Fv [1]: 110%
Papp at 2 h [2]: 5.4 ×10⁻⁶ cm/s
efflux ratio at 2 h [2]: 0.9
Human plasma protein binding (% free) [3]: 3.8 % free
IC50 [4]: 0.05 nM
logD [5, 6]: 3.8
IC50 (hERG potassium channel): 7900 nM

COCC(F)(F)CN1[C@H](c2ccc(NC3CN(CCCF)C3)cc2OC)c2ccc3[nH]ncc3c2C[C@H]1C [Example 1, N-(4-((6S,8R)-7-(2,2-difluoro-3-methoxypropyl)-8-methyl-6,7,8,9-tetrahydro-3H-pyrazolo[4,3-f]isoquinolin-6-yl)-3-methoxyphenyl)-1-(3-fluoropropyl)azetidin-3-amine]
MCF7 Western % ER deg vs Fv [1]: 91%
Papp at 2 h [2]: 0.9 ×10⁻⁶ cm/s
efflux ratio at 2 h [2]: 9.4
Human plasma protein binding (% free) [3]: 8.3 % free
IC50 [4]: 0.1 nM
logD [5, 6]: 3.4
IC50 (hERG potassium channel): 10000 nM

COCC(F)(F)CN1[C@H](c2ccc(NC3CN(CCCF)C3)cn2)c2ccc3[nH]ncc3c2C[C@H]1C [Example 2, 6-((6S,8R)-7-(2,2-difluoro-3-methoxypropyl)-8-methyl-6,7,8,9-tetrahydro-3H-pyrazolo[4,3-f]isoquinolin-6-yl)-N-(1-(3-fluoropropyl)azetidin-3-yl)pyridin-3-amine]
MCF7 Western % ER deg vs Fv [1]: 93%
Papp at 2 h [2]: 3.9 ×10⁻⁶ cm/s
efflux ratio at 2 h [2]: 8.4
Human plasma protein binding (% free) [3]: 28 % free
IC50 [4]: 3.1 nM
logD [5, 6]: 2.6
IC50 (hERG potassium channel): > 40000 nM

C[C@@H]1Cc2c(ccc3[nH]ncc23)[C@@H](c2ccc(NC3CN(CCCF)C3)cn2)N1CC(F)(F)F [Example 17, N-(1-(3-fluoropropyl)azetidin-3-yl)-6-((6S,8R)-8-methyl-7-(2,2,2-trifluoroethyl)-6,7,8,9-tetrahydro-3H-pyrazolo[4,3-f]isoquinolin-6-yl)pyridin-3-amine]
MCF7 Western % ER deg vs Fv [1]: 92%
Papp at 2 h [2]: 4.7 ×10⁻⁶ cm/s
Human plasma protein binding (% free) [3]: 23 % free
logD [5, 6]: 2.9

COc1cc(NC2CN(CCCF)C2)ccc1[C@@H]1c2ccc3[nH]ncc3c2C[C@@H](C)N1CC(C)(C)F [Example 64, N-(4-((6S,8R)-7-(2-fluoro-2-methylpropyl)-8-methyl-6,7,8,9-tetrahydro-3H-pyrazolo[4,3-f]isoquinolin-6-yl)-3-methoxyphenyl)-1-(3-fluoropropyl)azetidin-3-amine]
MCF7 Western % ER deg vs Fv [1]: 86%
Papp at 2 h [2]: 2 ×10⁻⁶ cm/s
efflux ratio at 2 h [2]: 5.6
Human plasma protein binding (% free) [3]: 14 % free
IC50 [4]: 0.22 nM
logD [5, 7]: 3.2
IC50 (hERG potassium channel): 13000 nM
